Source: patent publication US20020006930A1, “Method for stimulating liver regeneration” (priority 2000, published 2002)
“Also recorded” adds a separate entry of the source.

Assays:
[1] = test system: c-fos mRNA; test: Hepatic c-fos mRNA expression after 2/3 PHX (northern blot); type: in vivo, rat
Description: Animals were divided into four groups: sham procedures, PHX, PHX+L-NAME (Sigma), a Nos antagonist, and PHX+L-NAME+3morpholinosydnonimine (SIN-1, Alexis Corp.), a NO donor. Animals were anesthetized by sodium pentobarbital (6.5 mg/100 g. i.p; MTC Pharmaceuticals). Anesthesia was maintained using a continuous i.v. infusion (Harvard infusion pump, model 2720) of sodium pentobarbital (1.08 mg/ml saline, 1.0 ml/100 g/hr) via a cannula inserted into the femoral vein (PE50), Intramedic Clay Adams Brand, Becton-Dickinson). All surgical procedures were performed between the 10:00 am and 2:00 pm. Arterial blood pressure was monitored via a cannula (PE50, Intramedic Clay Adams Brand, Becton-Dickson) inserted into the femoral artery. To facilitate breathing a tracheotomy was performed using a polyethylene tube (PE240, Intramedic Clay Adams Brand, Becton-Dickinson) inserted into the trachea. Body temperature was maintained at 37.5±0.5° C. by the use of a rectal thermometer (Hanna Instruments) and a heated surgical table (Harvard Apparatus). Laparotomy was performed and a 24 G cather (Optiva™, Johnson and Johnson Medical Inc.) was inserted into the portal vein. The rat was then allowed to stabilize for 30 minutes.
A 0.5 ml bolus of L-NAME (5.0 mg/kg), or saline was infused intravenously over two minutes. Ten minutes later, PHX (resection of the left lateral and median lobes as described by Higgins and Anderson (20) or gentle manipulation of the liver lobes was performed. Resected lobes were litigated using black braided surgical silk (size 0, Ethicon) and excised. […] Fifteen minutes after PHX, or sham manipulation, the remaining liver was removed, slashed and blotted to remove blood, and immediately frozen on dry ice. Portal venous pressure (PVP) was measured, using an R-611 SensorMedics Dynograph Recorder, immediately before and after PHX.
For additional experiments involving PHX+L-NAME, the surgical procedure was exactly the same at that for the ⅔ PHX described above, except that the remaining liver as removed at 30, 45 or 60 minutes after PHX.
Total RNA was isolated by a method modified from Chirgwin et al. (23). Liver tissue was homogenized (Brinkman, Polytron) in lithium chloride/urea (3M/6M; Sima). The homogenized was centrifuged at 25000 rpm (Brinkman L8-70M Ultracentrifuge) for 20 minutes at 4° C. […] The concentration of the RNA was then determined using a spectrophotometer (Ultrospec2000, Pharamacia Biotech). […] The membranes were prehybridized at 42° C. for 3 hours in prehybridization buffer consisting of 5×SSC, 7% SDS (Sigma), sheared denatured salmon sperm DNA (100 μg/ml, Gibco BRL) and 5×Denhardt's solution (Sigma). c-fos mRNA was detected using a 2.1 kb cDNA probe (kindly provided by Dr. C Steer, university of Minnesota, Minneapolis, Minn.). […]

[2] = test system: proliferative factors (PF) in the plasma of PHX rats; test: Hepatocyte primary culture bioassay for proliferative factor (PF) production in plasma after 2/3 PHX; type: in vivo, rat; details: for reversal of L-NAME-induced blockade/inhibition: PHX rats given L-NAME plus L-arginine, in vivo
Description: The production of proliferative factors (PFs) was determined as previously described (21) . Briefly, PHX or PVL was performed as described above. Four hours after PHX or PVL, the diaphragm was cut and a blood sample drawn ([…] per rat) from the right ventricle of the heart using a 21 G 1.5-inch needle and a 10 ml sterile syringe. In a tissue culture hood, the blood was transferred to a sterile centrifuge tube, centrifuged at 2500 g for 20 minutes, and plasma stored at −20° C. The collagenase perfusion and hepatocyte isolation method was modified from Seglen (22), and has been previously described (21). Male Sprahue-Dawley rats (250 g) were anesthetized using sodium pentobarbital (6.5 mg/100 g, i.p.) and livers were perfused according to Seglen (22). Isolated cells were seeded (1×10^5 cells/ml, 2 ml per well) in six-well culture plates and allowed to attach to the plate overnight at 37° C. The next day, unattached cells were washed out of the wells and the starting viable cell number was counted from three randomly selected wells. Trypsin-EDTA (Gibco, BRL) was used to isolate attached hepatocytes from the plate and the hepatocytes were counted using a hemocytometer (Fisher Scientific). Fresh medium and plasma samples from PHX rats (10% final concentration) were added to the rest of the wells (three wells per sample). The medium, containing plasma, was changed at 24 hours. The attached viable cells were harvested at 48 hours. and the final count of viable hepatocytes was determined. The PF levels were expressed as net cell proliferation (viable cell count per well at 48 hours minus starting cell count per well).
The experiment was aimed to develop and optimize a hepatocyte primary culture bioassay to detect proliferative factors (PF) in the plasma or serum of partial hepatectomized (PHX) rats, which could serve as an index of the initiation of liver regeneration cascade.
The bioassay detects the presence of PF by measuring hepatocyte proliferation through a directly counting cell number increases over the culture period using a hemacytometer. The procedure of liver perfusion and hepatocyte purification was adopted from Seglen (1976 Methods Cell Biol. 13, 29) using Sprague Dawley rats. The purified hepatocytes ([…]) were seeded into 6-well culture plates and allowed to attach to the plate overnight at 37° C. The unattached cells were then washed out and the starting cell count was determined from 3 randomly picked wells in the culture after trypsin digestion. Sera collected from ⅔ PHX rats at 1-6 hours post PHX was added to the culture. With a medium change at 24 hours, the final cell counting was performed at 48 hours. The net cell proliferation was expressed as the difference between the counts at 48 hours and starting at hour (0 hr).
The optimized assay conditions ([…] plating concentration, 10% serum, 48 hr culture) were able to detect an increase of PF in PHX rat serum between 1-4 hours after PHX, with a peak activity at 4 hours (unpooled serum n=5/time point, pooled n=5/point). The assay has a high sensitivity to detect PF in ⅓ PHX rat serum (n=7), which was not detectable using the conventional DNA synthesis method.
(§1) To test the hypotheses, an […] hepatocyte primary culture bioassay was developed to detect PF in the plasma of PHX rats as an index of the initial trigger. The PHX surgery was performed according to the conventional method. Liver weight was also measured from the post PHX recovered rats to directly assess liver regeneration in vivo. The level of flow-dependent factors (e.g. adenosine (Ado), NO) was pharmacologically manipulated to test their roles in triggering the liver regeneration cascade.

[3] = test system: two-thirds PHX rats; test: Restoration of liver weight and survival after two-thirds PHX; type: in vivo, rat; details: for post surgery survival rate: 36-44 hours
Description: The extent of liver regeneration can be assessed from a number of parameters, the most direct being the restoration of liver weight following PHX. […] Unfortunately, the liver regeneration studies are made complex by the well known observation that NO synthase blockade can potentiate the toxic reaction to inflammatory conditions. […] This can have been a factor in these studies where 6 of 14 rats died in the high dose group between 36 and 44 hours. These animals had only 18±4.7% regeneration. The ability to inhibit regeneration is compatible with a triggering role for NO.
as §1

[4] = test system: cultured hepatocytes; test: Cultured hepatocytes exposed to L-NAME in vitro; type: cell-based, rat; details: L-NAME at concentrations estimated to occur in the in vivo experiments
Description: To determine whether NO served as a trigger to initiate a further cascade of events or whether it served as a direct proliferating stimulus on hepatocytes, the cultured hepatocytes were exposed to concentrations of L-NAME estimated to occur in the in vivo experiments.

[5] = test system: proliferative factor (PF) activity in blood after PVL; test: Hepatocyte bioassay for PF activity in blood after selective portal vein branch ligation (PVL); type: in vivo, rat
Description: Rats were divided into four groups: sham PVL, PVL, PVL+L-NAME and PVL+L-NAME+SIN-1. Surgical procedures were the same as described for PHX except that liver lobes were not ligated and […]. Rather, the left branch of the portal vein was carefully isolated and […]. The left branch of the portal vein was carefully isolated from the surrounding hepatic artery, hepatic nerves, bile duct and lymphatics. A thread was slipped around the left branch of the portal vein and the animal was allowed to recover for one hour. Following the recovery period, saline or L-NAME was administered as described for the PHX group, and the PVL+L-NAME+SIN-1 group received SIN-1 as indicated above. […] PVP was measured immediately before and after PVL, as described for PHX surgery.
The production of proliferative factors (PFs) was determined as previously described (21) . […] The next day, unattached cells were washed out of the wells and the starting viable cell number was counted from three randomly selected wells. Trypsin-EDTA (Gibco, BRL) was used to isolate attached hepatocytes from the plate and the hepatocytes were counted using a hemocytometer (Fisher Scientific). […] The attached viable cells were harvested at 48 hours. and the final count of viable hepatocytes was determined. The PF levels were expressed as net cell proliferation (viable cell count per well at 48 hours minus starting cell count per well).

CC(=O)NC(C(=O)O)C(C)(C)SN=O (racemic) [SNAP, S-nitroso-N-acetyl-D,L-penacillamine]
c-fos mRNA expression ([1]; after PHX, SNAP 5 mg/kg): potentiates | c-fos mRNA expression ([1]; sham operated livers, SNAP 5 mg/kg): no effect

Nc1ncnc2c1ncn2[C@@H]1O[C@H](CO)[C@@H](O)[C@H]1O [Ado, adenosine]
effect on PF generation ([2]; 2/3 PHX rats, adenosine level manipulated): no significant effects

COC(=O)[C@@H](N)CCCNC(=N)N[N+](=O)[O-] [L-NAME, N-nitro-Larginine methyl ester]
post surgery survival rate ([3]; L-NAME + PHX group (n=14), PHX control 100%): about 50% | post surgery survival rate ([3]; L-NAME-no-PHX control group (n=6)): 100% | restoration of liver weight (regeneration) ([3]; 48 hours post-PHX, low dose of L-NAME): did not significantly inhibit regeneration | rats that died ([3]; high dose L-NAME group after PHX, between 36 and 44 hours): 6 of 14 | regeneration in animals that died ([3]; high dose L-NAME group, rats that died between 36 and 44 hours): 18±4.7% | direct effect on hepatocyte proliferation in vitro [4]: positive proliferative stimulus | PF activity in blood ([5]; four hours after, L-NAME): inhibited | c-fos mRNA expression at 30, 45 and 60 minutes compared to 15 minutes after PHX ([1]; L-NAME 5.0 mg/kg i.v. prior to PHX): no difference in c-fos mRNA expression | appearance/generation of PF in the plasma ([2]; two-thirds PHX rats, L-NAME i.v. at early time points after PHX, 4 hours peak PF): block 4 hours peak PF generation; also recorded: blocked the appearance of PF in the plasma; also recorded: inhibited | dose giving maximum inhibition of PF appearance ([2]; two-thirds PHX rats, i.v., not further inhibited by 5.0 mg/kg): 2.5 mg/kg

N=C(N)NCCC[C@H](N)C(=O)O [L-arginine]
reversal of L-NAME-induced blockade/inhibition [2]: reversed the L-NAME inhibitory effect | reversal of L-NAME-induced blockade/inhibition ([2]; listed as L-Arginine): significantly reversed the inhibition by L-NAME

N=c1c[n+](N2CCOCC2)[n-]o1 [SIN-1, 3-morpholinosydnonimine]
reversal of L-NAME inhibition of PF activity ([5]; PF activity in blood four hours after): reversed the inhibition | reversal of L-NAME inhibition of PF activity ([2]; PHX, PF activity in blood four hours after): reversed the inhibition

CCCOc1ccccc1-c1nc2nn[nH]c2c(=O)[nH]1 [Zaprinast]
c-fos mRNA expression ([1]; after ⅔ PHX, Zaprinast 10 and 30 mg/kg): potentiated
